Assay [1] has as its target T1, Beta-1,4-galactosyltransferase 1 (Bos taurus, UniProt P08037).
T1 sequence (P08037 whole entry): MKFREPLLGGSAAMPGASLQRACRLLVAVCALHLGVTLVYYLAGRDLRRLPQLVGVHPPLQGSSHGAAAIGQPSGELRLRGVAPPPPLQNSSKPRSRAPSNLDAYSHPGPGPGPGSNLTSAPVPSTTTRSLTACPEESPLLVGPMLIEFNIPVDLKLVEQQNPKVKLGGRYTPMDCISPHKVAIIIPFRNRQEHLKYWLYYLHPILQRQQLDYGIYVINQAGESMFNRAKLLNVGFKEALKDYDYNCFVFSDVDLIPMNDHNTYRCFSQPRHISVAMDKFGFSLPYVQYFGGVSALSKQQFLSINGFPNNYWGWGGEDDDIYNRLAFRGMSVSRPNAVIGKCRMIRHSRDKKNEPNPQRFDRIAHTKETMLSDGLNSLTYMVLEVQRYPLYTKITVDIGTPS
As to the kind of experiment: Compound was tested for the inhibition recombinant bovine beta -1,4 -galactosyl transferase (beta-1,4-GalT).

Assay [2] deals with T2, N-acetyllactosaminide alpha-1,3-galactosyltransferase (Sus scrofa, UniProt P50127). Description: Compound was tested for the inhibition porcine alpha -1,3 -galactosyl transferase (alpha-1,3-GalT); No inhibition.
Assay [3] addresses T1, Beta-1,4-galactosyltransferase 1. As to the kind of experiment: Compound was tested for the inhibition recombinant bovine beta -1,4 -galactosyl transferase (beta-1,4-GalT); No inhibition.
Assay [4] addresses T2, N-acetyllactosaminide alpha-1,3-galactosyltransferase. Description: Compound was tested for the inhibition porcine alpha -1,3 -galactosyl transferase (alpha-1,3-GalT).
Assay [5] has the same target. Description: Compound was tested for the inhibition porcine alpha -1,3 -galactosyl transferase (alpha-1,3-GalT) at 0.2 mM concentration.

In general, Ki refers to the equilibrium dissociation constant of an inhibitor or competing ligand from its target.

T2 sequence (P50127 whole entry): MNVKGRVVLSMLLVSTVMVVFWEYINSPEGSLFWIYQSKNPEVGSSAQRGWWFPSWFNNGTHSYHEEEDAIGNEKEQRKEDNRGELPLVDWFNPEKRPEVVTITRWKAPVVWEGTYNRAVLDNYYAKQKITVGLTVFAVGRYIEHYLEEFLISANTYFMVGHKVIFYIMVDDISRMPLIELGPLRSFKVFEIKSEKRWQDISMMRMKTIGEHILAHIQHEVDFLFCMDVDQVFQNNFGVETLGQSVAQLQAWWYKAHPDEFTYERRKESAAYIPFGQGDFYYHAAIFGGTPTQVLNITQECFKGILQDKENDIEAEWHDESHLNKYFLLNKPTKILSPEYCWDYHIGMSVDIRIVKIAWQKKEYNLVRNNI

For the compound `CC(=O)NC1C(Oc2ccc3cc(Br)ccc3c2)OC(CO)C(O)C1O` (stereo unspecified), the Ki was 7.6 µM in assay [1] and “Not Active” in assay [2].

`CC(=O)NC1C(Oc2ccc3ccccc3c2)OC(CO)C(O)C1O` (stereo unspecified): the Ki in assay [1] was 9.5 µM; in assay [2], “Not Active”.

For `CC(=O)NC1C(Oc2ccccc2)OC(CO)C(O)C1O` (stereo unspecified), the Ki entry in assay [3] is on record as “Not Active”.

On to `COC(=O)CCCCCOC1OC(CO)C(O)C(O)C1NC(C)=O` (stereo unspecified), for which the Ki result in assay [3] is “Not Active”.

Turning to `CC(=O)NC1C(Oc2cccc3ccccc23)OC(CO)C(O)C1O` (stereo unspecified), the Ki is 22 µM in assay [1] and “Not Active” in assay [2].

Take `CC(=O)NC1C(OCc2ccccc2)OC(CO)C(N)C1O` (stereo unspecified): in assay [1], the Ki came out at 850 µM.

As for `OC[C@@H]1O[C@@H](Oc2ccc3cc(Br)ccc3c2)[C@@H](O)[C@@H](O)[C@H]1O`, the Ki entry in assay [3] was “Not Active”.

`CO[C@@H]1O[C@@H](CO)[C@H](O)[C@H](O[C@@H]2O[C@@H](CS)[C@@H](O)[C@H](O)[C@@H]2NC(C)=O)[C@@H]1O`: in assay [1], the Ki turned out to be 1000 µM.

As to `CC(=O)N[C@@H]1[C@H](Oc2ccc3cc(Br)ccc3c2)O[C@@H](CO)[C@@H](O[C@@H]2O[C@@H](CO)[C@H](O)[C@H](O)[C@@H]2O)[C@@H]1O`, the Ki entry in assay [3] is “Not Active”; in assay [4] it was 9.2 µM.

For the compound `COc1ccc2cc(OC3OC(CO)C(O)C(O)C3NC(C)=O)ccc2c1` (stereo unspecified), the Ki was 3.5 µM in assay [1] and “Not Active” in assay [2].

In the case of `COC1OC(CO)C(OC2OC(CO)C(O)C(N)C2O)C(O)C1NC(C)=O` (stereo unspecified), in assay [5], the Ki came to 104 µM.

Values taken from ChEMBL document CHEMBL1130691, “Acceptor substrate-based selective inhibition of galactosyltransferases” (Bioorg Med Chem Lett, 1998).
